Here are results for three compounds from US4593019A, “N^6 -tricyclic adenosines” (Warner-Lambert Company, priority 1984, dated 1986).

Data set [1] is described as follows: Mouse Activity and Screen Test Procedure (MAST): inhibition of spontaneous locomotion. It is filed as in vivo, mouse (male Swiss-Webster). As to conditions: one hour prior to testing, accumulated over one hour. How it is done: (§1) Nine unfasted Swiss-Webster male mice weighing 20-30 g are equally divided into three groups for each drug dose to be tested. That is, data for each dose level was generated by three separate groups of three mice each.
(§2) A minimum of three dose levels (10, 30, and 100 mg/kg) are tested for each drug. Treatments are administered intraperitoneally one hour prior to testing. All dosages are calculated as parent compound and given in volumes of 10 ml/kg. Compounds are dissolved or suspended in 0.2% Methocel. Control animals are injected with Methocel.
A two part testing procedure is started one hour postinjection. […] Briefly this test consists of placing mice on individual wire screens which are then rotated 180 degrees at the start of a 60 second observation period. The number of mice falling off the inverted screen is recorded.
The actophotometer consists of a cylindrical chamber whose center is occupied by another cylinder which contains the illumination for six photocells located on the perimeter of the chamber. Six light-beam interruptions equal one count. Locomotor activity is recorded by computer at ten minute intervals for 60 minutes.
The data obtained from the screen test are expressed as percent of mice falling off the screen. Data derived from locomotor activity of drug treated mice are compared to the activity of vehicle treated animals and are expressed as percent inhibition of spontaneous locomotion. All percentages reported for inhibition of locomotion (LI) are based upon data accumulated for one hour. […] An overall dose rating is obtained by the following criteria:
LAD refers to the lowest dose at which an A rating is achieved. […] The compounds are identified in the examples.

Data set [2] concerns mice. Nature of the data set: Mouse Activity and Screen Test Procedure (MAST): screen test failure. As to conditions: one hour postinjection. It is filed as in vivo, mouse (male Swiss-Webster).
Description: The compounds of the invention are new chemical substances which are useful as pharmaceutical agents for the treatment of psychoses. The antipsychotic activity of representative compounds of the invention was established by the Mouse Activity and Screen Test Procedure (MAST) described below.
as §1, §2
A two part testing procedure is started one hour postinjection. First, the screen test (ST) is performed (see Pharmac. Biochem. Behav. 6, 351-353, 1977). Briefly this test consists of placing mice on individual wire screens which are then rotated 180 degrees at the start of a 60 second observation period. The number of mice falling off the inverted screen is recorded.
The data obtained from the screen test are expressed as percent of mice falling off the screen. Data derived from locomotor activity of drug treated mice are compared to the activity of vehicle treated animals and are expressed as percent inhibition of spontaneous locomotion. All percentages reported for inhibition of locomotion (LI) are based upon data accumulated for one hour. Both phases of testing are graded: A=60-100%; C=31-59%; and N=0-30%. An overall dose rating is obtained by the following criteria: […]

Data set [3] is described as follows: Antihypertensive evaluation (AHP3): direct monitoring of aortic blood pressure and heart rate in conscious rats. As to conditions: 10 mg/kg, conscious rat. The class given is in vivo. How it is done:
This test procedure is described in the following paragraphs.
The continuous monitoring of pulsatile blood pressure (BP) from unrestrained conscious rats surgically equipped with polyethylene cannulas was accomplished by means of a computer assisted data capture scheme (CADCS). The basic elements of the methodology are the cannulation procedure and the CADCS.
Cannulation Procedure: Rats were anesthetized with Telazol (1:1 tiletamine HCl and zolazepam HCl); 20-40 mg/kg IM and the descending aorta exposed via a midline incision. Cannulas fabricated from polyethylene tubing were inserted into the aorta via an undersized puncture hole below the renal arteries. The puncture hole was made by a 23 G disposable needle with a section of the aorta clamped off above and below the puncture site. The cannulas, consisting of a PE100 (0.86 mm ID) body and a PE50 (0.58 mm ID) tip, were attached to a trocar, inserted through the psoas muscle, and passed subcutaneously along the midline of the back and externalized between the ears. The cannulas were anchored to the psoas muscle and between the scalulae (3-0 green braided suture). The midline incision was closed in two steps (muscle first, skin second) using continuous over-and over sutures (4-0 chronic). Each rat was then given penicillin 30,000 units subcutaneously (Penicillin G Procaine Sterile Suspension).
The rats were fitted with a harness-spring-swivel assembly designed to protect the cannula and to provide the rat relative freedom of movement. The harnesses were fabricated from nylon hook and loop tape cemented to a metal plate to which spring wires (18-8 stainless steel), were attached to brass swivels. […] While on test, each rat received a continuous slow infusion of heparinized saline solution (approximately […] or 40 units of heparin per 24 hour period) to prevent clot formation. Additional "flushes" of the cannula with heparinized saline were carried out when the aortic pulse pressure (systolic minus diastolic) was less than 25 mm Hg.
CADCS: The pulsatile blood pressure and heart rate of each of 32 rats was monitored every minute by means of two in-laboratory microcomputers communicating directly with a data concentrator computer. The data were first stored on the data concentrator disk and then transferred to a magnetic tape for analysis and report generation by the main research computer. The overall scheme involved modulating the primary signal from the pressure transducer, generating the primary data set of the one-minute values for systolic, diastolic, and mean blood pressures and heart rate by the in-lab microcomputer and the storage, analysis, and report generation by the main reserach computer.
The transducers were connected to analog signal conditioning modules. The modules provided a regulated excitation voltage for the transducers, amplification as required to interface the microprocessors and an active low pass filter to compensate for the pressure wave form distortion produced by the flexible, fluid filled, narrow cannula.
The microcomputers (one for each of two groups of 16 rats) were connected to the input components through the module interface units, an analog-to-digital converter for the pressure wave form signal and the digital inputs for the dose and event marker switches. The microcomputer controlled the sequential acquisition of data from the modular interface units through an internal synchronous time-of-day clock/time base generator. Utilizing the time base generator as a reference, the blood pressure values and the marker switch status for each of the 32 stations were sampled every ten msec. The microcomputer processed each blood pressure sample as it was received to produce "running average" values for heart rate, and mean, systolic and diastolic blood pressures.

Data set [4] has as its target T1, A1 receptor (Rattus norvegicus, UniProt P25099).
T1 construct: Whole brain minus cerebellum and brainstem from male Long Evans rats; from tissue; host or cells: rat whole brain minus cerebellum and brainstem (membranes)
T1 sequence (P25099 1-326): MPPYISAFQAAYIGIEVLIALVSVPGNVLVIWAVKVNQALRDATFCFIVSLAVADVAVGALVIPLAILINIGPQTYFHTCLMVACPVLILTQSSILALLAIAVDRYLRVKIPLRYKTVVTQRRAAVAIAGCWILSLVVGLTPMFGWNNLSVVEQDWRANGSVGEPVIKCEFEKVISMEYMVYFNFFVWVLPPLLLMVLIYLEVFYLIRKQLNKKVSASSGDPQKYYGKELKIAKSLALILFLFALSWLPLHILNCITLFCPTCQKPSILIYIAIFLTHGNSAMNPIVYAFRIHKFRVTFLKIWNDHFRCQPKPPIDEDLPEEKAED
Nature of the data set: Adenosine Receptor Binding - A1 Receptor Affinity (RBA1), [3H]-CHA displacement. As to conditions: 1.0 nM [3H]-CHA, rat brain membranes, pH 7.7, 25° C., 1 h; read-out: RBA-1 IC50 (adenosine A1 receptor affinity). Here is the method: The supernatant was discarded, and the pellet was resuspended and centrifuged as before. […] Incubation volume was 2 ml. […] The radio-labeled ligand retained on the filter was measured by liquid scintillation spectrophotometry after shaking the filters for one hour or longer on a mechanical shaker in 10 ml of Beckman Ready-Solv HP scintillation cocktail. […] The maximal number of binding sites (Bmax) was calculated from the Scatchard plot.

Data set [5] addresses T2, A2 receptor (Rattus norvegicus, UniProt P30543).
T2 construct: 5 mg original tissue weight of rat weight of rat striatal membranes; tissue Pel-Freez (Rogers, Ark.); host or cells: rat striatum (membranes)
Nature of the data set: Adenosine Receptor Binding - A2 Receptor Affinity (RBA2), [3H]NECA displacement. As to conditions: 4 nM [3H]NECA, 50 nM N6-cyclopentyladenosine, rat striatal membranes, 25° C., 60 min; read-out: RBA-2 IC50 (adenosine A2 receptor affinity). Here is the method:
Adenosine Receptor Binding--A2 Receptor Affinity (RBA2)
Brains from 200-500 g mixed sex Sprague-Dawley rats were purchased from Pel-Freez (Rogers, Ark.). […] Brains were thawed and then kept on ice while the striata were dissected out. […] The suspension was centrifuged at 50,000 xg for ten minutes, the supernatant discarded, the pellet resuspended in 10 vol ice-cold Tris as above, recentrifuged, resuspended at 1 g/5 ml, and stored in plastic vials at -70° C. […] When needed, tissue was thawed at room temperature, disrupted in a Polytron, and kept on ice until used. […]
Nonspecific binding was defined as binding in the presence of 100 μM N^6 -cyclopentyladenosine, and specific binding was defined as total binding minus nonspecific binding. The IC50 was calculated by weighted nonlinear least squares curve-fitting to the mass-action equation. […]
Weighting factors were calculated under the assumption that the standard deviation was proportional to the predicted value of Y. Nonspecific binding was treated as a very large (infinite) concentration of drug in the computer analysis.

Structures are written as SMILES.

Usually IC50 stands for the concentration that gives 50% inhibition.

T2 sequence (P30543 whole entry): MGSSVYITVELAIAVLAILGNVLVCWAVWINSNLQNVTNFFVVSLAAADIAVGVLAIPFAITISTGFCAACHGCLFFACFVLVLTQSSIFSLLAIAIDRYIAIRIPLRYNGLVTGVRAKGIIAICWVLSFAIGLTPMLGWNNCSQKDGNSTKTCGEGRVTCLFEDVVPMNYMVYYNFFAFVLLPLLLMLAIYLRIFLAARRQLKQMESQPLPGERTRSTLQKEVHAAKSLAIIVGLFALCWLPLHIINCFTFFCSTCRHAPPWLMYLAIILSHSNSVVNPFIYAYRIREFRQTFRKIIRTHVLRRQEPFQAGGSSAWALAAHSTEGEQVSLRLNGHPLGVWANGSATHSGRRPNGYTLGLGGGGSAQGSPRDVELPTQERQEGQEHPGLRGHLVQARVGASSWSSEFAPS

For the compound `OC[C@H]1O[C@@H](n2cnc3c(NCC4c5ccccc5-c5ccccc54)ncnc32)[C@H](O)[C@@H]1O` [Example 2], the “Inhibition of Mouse Locomotion Activity” value in data set [1] (1 mg/kg i.p.) came out at 56%; in data set [1] (3 mg/kg i.p.), 94%; in data set [1] (10 mg/kg i.p.) it was 97%; in data set [1] (30 mg/kg i.p.), 97%; in data set [1] (100 mg/kg i.p.), 91%. Moreover, the “Screen Test Failure (percent of mice falling off the screen)” value in data set [2] (1 mg/kg i.p.) stood at 11%; in data set [2] (3 mg/kg i.p.), 33%; in data set [2] (10 mg/kg i.p.) it was 44%; in data set [2] (30 mg/kg i.p.) it was 55%; in data set [2] (100 mg/kg i.p.), 55%. Besides, the “HR ↑ (increase in heart rate)” value in data set [3] (1 hour) came to 24%; in data set [3] (3 hours), 27%; in data set [3] (5 hours), 20%; in data set [3] (7 hours), 13%; in data set [3] (9 hours) it was 13%. Besides, the “MAP ↓ (decrease in mean arterial blood pressure)” value stood at 32% in data set [3] (1 hour); 32% in data set [3] (3 hours); 34% in data set [3] (5 hours); 28% in data set [3] (7 hours); 30% in data set [3] (9 hours).

Consider `OC[C@H]1O[C@@H](n2cnc3c(NC4c5ccccc5-c5ccccc54)ncnc32)[C@H](O)[C@@H]1O` [Example 1], for which the “Inhibition of Mouse Locomotion Activity” value is listed as 41% in data set [1] (10 mg/kg i.p.), 60% in data set [1] (30 mg/kg i.p.) and 68% in data set [1] (100 mg/kg i.p.). Moreover, the concentration for half-maximal inhibition (IC50) in data set [4] stood at 8.6 µM; in data set [5] it was 51 µM. Besides, the “Screen Test Failure (percent of mice falling off the screen)” value in data set [2] (10 mg/kg i.p.), in data set [2] (30 mg/kg i.p.) and in data set [2] (100 mg/kg i.p.) was 0% in each case.

Regarding `OC[C@H]1O[C@@H](n2cnc3c(NCCC4c5ccccc5-c5ccccc54)ncnc32)[C@H](O)[C@@H]1O` [Example 3, N^6 -Fluorenylethyl adenosine], the IC50 in data set [4] stood at 0.435 µM.
